Here are results for one compound from patent publication US7537891B2, “Identification of polynucleotides for predicting activity of compounds that interact with and/or modulate protein tyrosine kinases and/or protein tyrosine kinase pathways in breast cells” (Bristol-Myers Squibb Company, priority 2002, dated 2009).

In assay [1] the test system is HCC 1187 breast cancer cell line. Nature of the assay: In vitro cytotoxicity assay (MTS), additional breast cancer cell lines. Format: cell-based, human. To be noted: read-out: IC50 (μM) to BMS-A. As to the method: (§1) The protein tyrosine kinase inhibitor compound (described in international application WO 00/62778, published Oct. 26, 2000) was tested for cytotoxicity in vitro against a panel of twenty-three human breast cell lines available from the American Type Culture Collection, ATCC, except H3396, which was obtained from Pacific Northwest Research Institute, Seattle Wash. The MCF7/Her2 cell line was established by stable transfection of MCF7 cells with the HER2 gene. Cytotoxicity was assessed in cells by the MTS (3-(4,5-dimethylthiazol-2-yl)-5-(3-carboxymethoxyphenyl)-2-(4-sulphenyl)-2H-tetrazolium, inner salt) assay (T. L. Riss et al., 1992, Mol. Biol. Cell, 3 (Suppl.):184a).
(§2) To carry out the assays, the breast cells were plated at 4,000 cells/well in 96 well microtiter plates, and 24 hours later, serially diluted drugs were added. The concentration range for the protein tyrosine kinase inhibitor compound BMS-A used in the cytotoxicity assay was from 5 μg/ml to 0.0016 μg/ml (roughly 10 μM to 0.0032 μM).
(§3) The cells were incubated at 37° C. for 72 hours at which time the tetrazolium dye, MTS (333 μg/ml final concentration), in combination with the electron coupling agent phenazine methosulfate (25 μM final concentration), was added. A dehydrogenase enzyme in live cells reduces the MTS to a form that absorbs light and can be quantified spectrophotometrically at 492 nM. The greater the absorbency the greater the number of live cells. The results are expressed as an IC50, which is the drug concentration required to inhibit cell proliferation (i.e. absorbance at 492 nm) to 50% of that of untreated control cells. The mean IC50 and standard deviation (SD) from multiple tests for each cell line were calculated.
(§4) The ability of the 137 predictor polynucleotides and polypeptides of the present invention to predict which cell lines are sensitive or resistant to compound BMS-A was further evaluated by testing 12 new breast cancer cell lines that were never used in the identification of these polynucleotides. Assays were performed as described in Example 1 herein.
(§5) The cell lines with a IC50 below 1 μM were defined as sensitive to the compound, while those having a IC50 above 1 μM were considered to be resistant. The gene expression profiling for the 12 breast cancer cell lines was performed using Affymetrix gene chip Hu-U133 sets as described in Example 1.

The subject of assay [2] is HCC 202 breast cancer cell line. Described as above. To be noted: read-out: IC50 (μM) to BMS-A. Format: cell-based, human. As to the method:
as §1, §2, §3, §4, §5

Assay [3] relates to HCC 2218 breast cancer cell line. The assay is described as above. To be noted: read-out: IC50 (μM) to BMS-A. Format: cell-based, human. Here is the method: as §1, §2, §3, §4, §5
Assay [4] deals with MDA-MB-361 breast cancer cell line. The description is as above. Format: cell-based, human. To be noted: read-out: IC50 (μM) to BMS-A. As to the method: as §1, §2, §3, §4, §5
In assay [5] the test system is HCC 1500 breast cancer cell line. Described as above. Format: cell-based, human. To be noted: read-out: IC50 (μM) to BMS-A. Here is the method: as §1, §2, §3, §4, §5
In assay [6] the test system is polynucleotide expression in breast cell lines. Put plainly: Drug treatment study with expression profiling in 11 breast cell lines. Type of assay: cell-based, human. To be noted: 0.4 μM BMS-A, 24 hours; only in sensitive breast cell lines. Here is the method: Eleven breast cell lines (5 sensitive and 6 resistant cell lines as indicated in bold in the Table 1) were used in a drug treatment study. Cells were treated with or without the BMS-A compound (0.4 μM) in 0.1% DMSO for 24 hours. Expression profiling was performed, the polynucleotide expression of a cell line treated with drug was compared pair-wisely to the polynucleotide expression of the same cell line without drug treatment. […]
Cells were treated with or without the BMS-A compound (0.4 μM) in 0.1% DMSO for 24 hours. Expression profiling was performed, and the data were analyzed using GeneChip® Expression Analysis software MAS 5.0 (Affymetrix, Santa Clara, Calif.). […] A change in p-value was calculated, indicating an increase, decrease or no change in polynucleotide expression. […]
The breast cells were grown under standard cell culture conditions: RPMI 1640 supplemented to contain 10% fetal bovine serum, 100 IU/ml penicillin, […], 2 mM L-glutamine and 10 mM Hepes (all from GibcoBRL, Rockville, Md.). […] The quality of the RNA was assessed by measuring the 28s:18s ribosomal RNA ratio using an Agilent 2100 bioanalyzer (Agilent Technologies, Rockville, Md.). The concentration of total RNA was determined spectrophotometrically. […]

In assay [7] the test system is EphA2 expression in PC3 prostate cell line. Put plainly: Polynucleotide expression after drug treatment in PC3. To be noted: 0.025, 0.1 and 0.4 μM BMS-A for 4 or 24 hours. Format: cell-based. As to the method:
(§6) Cells are treated without or with 0.025 μM, 0.1 μM and 0.4 μM of the BMS-A compound for 4 hours or 24 hours. The relative polynucleotide expression level of treated cells is compared to the corresponding untreated control which is set to 1. Drug concentrations and time of treatment are indicated.

Assay [8] has as its system caveolin-2 expression in PC3 prostate cell line. The description is as above. Format: cell-based. To be noted: 0.025, 0.1 and 0.4 μM BMS-A for 4 or 24 hours. Here is the method:
as §6

By IC50 is commonly meant the concentration that inhibits the measured activity by half. As to `Cc1nc(Nc2ncc(C(=O)Nc3c(C)cccc3Cl)s2)cc(N2CCN(CCO)CC2)n1` [BMS-A], the IC50 in assay [1] is 1.58 µM; in assay [2], 5.58 µM; in assay [3] it was 8.65 µM; in assay [4] it was 1.44 µM; in assay [5], > 8.93 µM. Moreover, the EphA2 polynucleotide expression result in assay [6] was “down regulated”. Moreover, in assay [6], the caveolin-2 polynucleotide expression result is recorded as “down regulated”. Further, the “EphA2 polynucleotide expression compared to the untreated control” value in assay [7] is “dose and time dependent polynucleotide expression decrease”. Moreover, the “caveolin-2 polynucleotide expression compared to the untreated control” value in assay [8] was “dose and time dependent polynucleotide expression decrease”.
